Laboratory results: patent US9896435B2, “N-pyrrolidinyl,N′-pyrazolyl-urea, thiourea, guanidine and cyanoguanidine compounds as TrkA kinase inhibitors” (Array BioPharma Inc., priority 2012, dated 2018)

What was measured:
Assay in all cases: KinaseProfiler off-target kinase profiling
Type in all cases: biochemical
Conditions in all cases: 10 μM, ATP near Km
MARK2 = MARK2 (Homo sapiens (Human), UniProt Q7KZI7)
Experimental: (§1) Two representative compounds (Example 2, 14) of the invention were tested for off-target kinase activity at a concentration of 10 μM by Millipore, Inc. in their KinaseProfiler™ service against all the kinases available in their full kinase panel. These compounds were run in duplicate at a concentration of ATP near the Km for each individual kinase according to Millipore's specifications. The results are shown in Table B. Data are reported as percent of control (POC) and are the average of the two replicates.

MAPKAP-K5 = MAPKAP-K5 (Homo sapiens (Human), UniProt Q8IW41)
Experimental: as §1

DRAK1 = DRAK1 (Homo sapiens (Human), UniProt Q9UEE5)
Experimental: as §1

MEK1 = MEK1 (Homo sapiens (Human), UniProt Q02750)
Experimental: as §1

MSK2 = MSK2 (Homo sapiens (Human), UniProt O75676)
Experimental: as §1

Fer = Fer (Homo sapiens (Human), UniProt P16591)
Experimental: as §1

PAK6 = PAK6 (Homo sapiens (Human), UniProt Q9NQU5)
Experimental: as §1

TAO2 = TAO2 (Homo sapiens (Human), UniProt Q9UL54)
Experimental: as §1

MKK7 = MKK7 (Homo sapiens (Human), UniProt O14733)
Experimental: as §1

Fms = Fms (Homo sapiens (Human), UniProt P07333)
Experimental: as §1

KIT = KIT (Homo sapiens (Human), UniProt P10721)
Experimental: as §1

PhKgamma2 = PhKgamma2 (Homo sapiens (Human), UniProt P15735)
Experimental: as §1

HIPK3 = HIPK3 (Homo sapiens (Human), UniProt Q9H422)
Experimental: as §1

MELK = MELK (Homo sapiens (Human), UniProt Q14680)
Experimental: as §1

ERK2 = ERK2 (Homo sapiens (Human), UniProt P28482)
ERK2, sequence (P28482 whole entry): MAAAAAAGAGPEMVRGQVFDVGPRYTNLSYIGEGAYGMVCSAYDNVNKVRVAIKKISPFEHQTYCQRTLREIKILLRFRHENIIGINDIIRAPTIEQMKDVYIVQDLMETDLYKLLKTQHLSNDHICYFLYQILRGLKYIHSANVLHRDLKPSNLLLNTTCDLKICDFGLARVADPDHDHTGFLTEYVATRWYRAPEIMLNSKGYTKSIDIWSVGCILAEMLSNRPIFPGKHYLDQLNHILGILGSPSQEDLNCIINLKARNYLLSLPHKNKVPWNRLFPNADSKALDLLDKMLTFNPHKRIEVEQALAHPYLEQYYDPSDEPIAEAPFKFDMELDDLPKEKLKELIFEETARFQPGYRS
Experimental: as §1

CK2alpha2 = CK2alpha2 (Homo sapiens (Human), UniProt P19784)
Experimental: as §1

p38alpha = p38alpha (Homo sapiens (Human), UniProt Q16539)
Experimental: as §1

EphA4 = EphA4 (Homo sapiens (Human), UniProt P54764)
Experimental: as §1

mTOR = mTOR (Homo sapiens (Human), UniProt P42345)
Experimental: as §1

SGK3 = SGK3 (Homo sapiens (Human), UniProt Q96BR1)
SGK3, sequence (Q96BR1 whole entry): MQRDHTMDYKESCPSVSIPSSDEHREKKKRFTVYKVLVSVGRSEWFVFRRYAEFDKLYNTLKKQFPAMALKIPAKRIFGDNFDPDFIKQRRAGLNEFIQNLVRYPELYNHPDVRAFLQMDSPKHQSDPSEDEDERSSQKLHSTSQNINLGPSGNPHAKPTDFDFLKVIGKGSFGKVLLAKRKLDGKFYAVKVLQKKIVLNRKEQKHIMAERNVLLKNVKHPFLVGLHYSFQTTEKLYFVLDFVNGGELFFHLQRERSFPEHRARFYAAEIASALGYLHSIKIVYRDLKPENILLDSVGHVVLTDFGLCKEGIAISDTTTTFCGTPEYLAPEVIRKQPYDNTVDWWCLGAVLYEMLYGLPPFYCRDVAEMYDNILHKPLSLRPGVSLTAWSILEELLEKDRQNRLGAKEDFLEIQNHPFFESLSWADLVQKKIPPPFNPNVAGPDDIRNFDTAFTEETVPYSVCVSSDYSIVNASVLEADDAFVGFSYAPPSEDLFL
Experimental: as §1

DDR2 = DDR2 (Homo sapiens (Human), UniProt Q16832)
Experimental: as §1

p70S6K = p70S6K (Homo sapiens (Human), UniProt P23443)
Experimental: as §1

DCAMKL2 = DCAMKL2 (Homo sapiens (Human), UniProt Q8N568)
DCAMKL2, sequence (Q8N568 whole entry): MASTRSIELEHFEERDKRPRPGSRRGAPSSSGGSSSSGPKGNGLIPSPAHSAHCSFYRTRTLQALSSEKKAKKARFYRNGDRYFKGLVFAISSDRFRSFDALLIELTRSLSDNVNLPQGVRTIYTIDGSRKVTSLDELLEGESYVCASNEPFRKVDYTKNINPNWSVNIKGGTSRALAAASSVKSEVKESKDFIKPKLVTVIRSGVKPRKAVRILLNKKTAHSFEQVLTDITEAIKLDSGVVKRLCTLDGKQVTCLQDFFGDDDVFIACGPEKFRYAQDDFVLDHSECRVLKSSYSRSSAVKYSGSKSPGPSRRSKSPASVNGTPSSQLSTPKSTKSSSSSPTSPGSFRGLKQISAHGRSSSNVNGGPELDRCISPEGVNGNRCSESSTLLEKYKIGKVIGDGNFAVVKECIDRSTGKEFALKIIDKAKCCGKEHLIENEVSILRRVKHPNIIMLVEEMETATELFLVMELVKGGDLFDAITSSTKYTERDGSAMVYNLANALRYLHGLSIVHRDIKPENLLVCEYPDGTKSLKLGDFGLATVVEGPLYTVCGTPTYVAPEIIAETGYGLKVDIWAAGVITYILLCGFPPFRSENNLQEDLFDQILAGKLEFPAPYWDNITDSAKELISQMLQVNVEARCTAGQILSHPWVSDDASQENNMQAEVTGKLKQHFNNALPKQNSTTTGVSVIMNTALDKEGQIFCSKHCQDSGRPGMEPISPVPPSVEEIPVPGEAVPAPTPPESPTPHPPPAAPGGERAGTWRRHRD
Experimental: as §1

MAP3K5 = MAP3K5 (Homo sapiens (Human), UniProt Q99683)
Experimental: as §1

CDK2/cyclinE = CDK2/cyclinE (Homo sapiens (Human), UniProt P24941)
Experimental: as §1

CHK1 = CHK1 (Homo sapiens (Human), UniProt O14757)
Experimental: as §1

MKK6 = MKK6 (Homo sapiens (Human), UniProt P52564)
Experimental: as §1

TrkB = TrkB (Homo sapiens (Human), UniProt Q16620)
TrkB, sequence (Q16620 32-822): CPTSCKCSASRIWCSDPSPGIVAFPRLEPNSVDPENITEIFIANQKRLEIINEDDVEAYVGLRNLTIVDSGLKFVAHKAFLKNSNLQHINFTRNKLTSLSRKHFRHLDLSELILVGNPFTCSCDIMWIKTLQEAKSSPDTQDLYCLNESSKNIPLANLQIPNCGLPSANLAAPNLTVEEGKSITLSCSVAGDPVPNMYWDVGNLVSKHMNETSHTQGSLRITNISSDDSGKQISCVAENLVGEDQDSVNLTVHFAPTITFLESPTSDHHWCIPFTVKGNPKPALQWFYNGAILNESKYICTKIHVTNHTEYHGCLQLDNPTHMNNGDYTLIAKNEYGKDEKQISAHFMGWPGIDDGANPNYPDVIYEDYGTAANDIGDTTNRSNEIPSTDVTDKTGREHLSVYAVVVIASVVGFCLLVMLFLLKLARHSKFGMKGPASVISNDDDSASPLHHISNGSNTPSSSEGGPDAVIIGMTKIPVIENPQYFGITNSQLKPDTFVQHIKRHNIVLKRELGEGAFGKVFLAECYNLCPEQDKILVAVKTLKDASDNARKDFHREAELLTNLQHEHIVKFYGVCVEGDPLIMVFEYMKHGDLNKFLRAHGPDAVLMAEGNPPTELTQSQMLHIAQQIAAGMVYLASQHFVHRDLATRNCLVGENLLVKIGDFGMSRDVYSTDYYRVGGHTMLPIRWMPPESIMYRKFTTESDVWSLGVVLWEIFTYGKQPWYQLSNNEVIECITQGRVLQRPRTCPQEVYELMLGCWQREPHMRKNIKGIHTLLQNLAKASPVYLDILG
Experimental: as §1

WNK2 = WNK2 (Homo sapiens (Human), UniProt Q9Y3S1)
Experimental: as §1

MSSK1 = MSSK1 (Homo sapiens (Human), UniProt Q9UPE1)
Experimental: as §1

EphA8 = EphA8 (Homo sapiens (Human), UniProt P29322)
Experimental: as §1

KDR = KDR (Homo sapiens (Human), UniProt P35968)
Experimental: as §1

LOK = LOK (Homo sapiens (Human), UniProt O94804)
LOK, sequence (O94804 whole entry): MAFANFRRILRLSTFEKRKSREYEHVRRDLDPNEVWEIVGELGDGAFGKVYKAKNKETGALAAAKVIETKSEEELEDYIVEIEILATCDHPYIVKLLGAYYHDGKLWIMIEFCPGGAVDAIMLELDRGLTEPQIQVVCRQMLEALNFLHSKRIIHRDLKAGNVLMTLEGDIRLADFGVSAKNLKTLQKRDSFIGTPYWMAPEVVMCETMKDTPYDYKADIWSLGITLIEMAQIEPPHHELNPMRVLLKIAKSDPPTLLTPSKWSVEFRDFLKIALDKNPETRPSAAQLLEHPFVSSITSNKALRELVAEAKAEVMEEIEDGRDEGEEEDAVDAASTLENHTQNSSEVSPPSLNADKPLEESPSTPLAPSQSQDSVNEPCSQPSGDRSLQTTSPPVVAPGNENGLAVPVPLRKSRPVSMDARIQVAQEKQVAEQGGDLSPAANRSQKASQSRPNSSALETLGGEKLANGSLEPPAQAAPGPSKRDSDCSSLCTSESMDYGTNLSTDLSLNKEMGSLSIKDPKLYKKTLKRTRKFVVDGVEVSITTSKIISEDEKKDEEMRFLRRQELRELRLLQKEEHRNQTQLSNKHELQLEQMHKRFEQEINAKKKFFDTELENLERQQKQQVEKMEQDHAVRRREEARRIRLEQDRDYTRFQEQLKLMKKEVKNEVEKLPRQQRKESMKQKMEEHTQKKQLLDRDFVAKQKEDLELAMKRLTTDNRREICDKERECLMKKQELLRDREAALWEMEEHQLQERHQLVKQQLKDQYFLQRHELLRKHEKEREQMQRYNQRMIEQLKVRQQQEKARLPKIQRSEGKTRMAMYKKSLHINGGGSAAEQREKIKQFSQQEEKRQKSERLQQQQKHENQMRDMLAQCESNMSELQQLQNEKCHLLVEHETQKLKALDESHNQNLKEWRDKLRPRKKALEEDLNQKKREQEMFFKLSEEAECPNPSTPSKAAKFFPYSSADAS
Experimental: as §1

PKCdelta = PKCdelta (Homo sapiens (Human), UniProt Q05655)
Experimental: as §1

GSK3beta = GSK3beta (Homo sapiens (Human), UniProt P49841)
GSK3beta, sequence (P49841 whole entry): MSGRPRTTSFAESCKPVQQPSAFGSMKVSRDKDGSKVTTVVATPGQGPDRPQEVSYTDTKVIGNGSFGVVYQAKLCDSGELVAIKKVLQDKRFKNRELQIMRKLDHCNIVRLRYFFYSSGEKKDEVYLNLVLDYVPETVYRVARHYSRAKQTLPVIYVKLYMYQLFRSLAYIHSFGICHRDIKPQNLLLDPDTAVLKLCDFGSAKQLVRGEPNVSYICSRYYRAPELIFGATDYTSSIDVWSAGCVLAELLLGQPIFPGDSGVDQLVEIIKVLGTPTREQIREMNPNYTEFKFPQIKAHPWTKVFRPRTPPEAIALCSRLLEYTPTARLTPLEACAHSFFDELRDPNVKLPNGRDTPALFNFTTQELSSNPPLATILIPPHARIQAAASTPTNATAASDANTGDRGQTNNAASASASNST
Experimental: as §1

Pim-2 = Pim-2 (Homo sapiens (Human), UniProt Q9P1W9)
Experimental: as §1

WNK3 = WNK3 (Homo sapiens (Human), UniProt Q9BYP7)
Experimental: as §1

CAMK2b = CAMK2b (Homo sapiens (Human), UniProt Q13554)
Experimental: as §1

IRAK4 = IRAK4 (Homo sapiens (Human), UniProt Q9NWZ3)
IRAK4, sequence (Q9NWZ3 whole entry): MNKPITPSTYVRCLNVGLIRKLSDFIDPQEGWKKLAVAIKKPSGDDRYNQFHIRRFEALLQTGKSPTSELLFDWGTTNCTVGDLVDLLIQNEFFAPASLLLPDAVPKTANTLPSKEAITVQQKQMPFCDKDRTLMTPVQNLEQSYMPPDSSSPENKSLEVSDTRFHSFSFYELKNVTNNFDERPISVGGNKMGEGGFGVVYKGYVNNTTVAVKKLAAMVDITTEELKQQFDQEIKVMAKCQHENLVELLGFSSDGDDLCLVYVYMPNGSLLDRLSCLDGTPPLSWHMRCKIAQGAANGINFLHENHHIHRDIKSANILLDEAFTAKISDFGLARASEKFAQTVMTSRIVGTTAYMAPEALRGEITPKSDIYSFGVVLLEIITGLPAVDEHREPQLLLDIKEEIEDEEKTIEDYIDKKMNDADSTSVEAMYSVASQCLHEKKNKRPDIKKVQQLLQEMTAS
Experimental: as §1

IKKalpha = IKKalpha (Homo sapiens (Human), UniProt O15111)
Experimental: as §1

MARK2, sequence (Q7KZI7 whole entry): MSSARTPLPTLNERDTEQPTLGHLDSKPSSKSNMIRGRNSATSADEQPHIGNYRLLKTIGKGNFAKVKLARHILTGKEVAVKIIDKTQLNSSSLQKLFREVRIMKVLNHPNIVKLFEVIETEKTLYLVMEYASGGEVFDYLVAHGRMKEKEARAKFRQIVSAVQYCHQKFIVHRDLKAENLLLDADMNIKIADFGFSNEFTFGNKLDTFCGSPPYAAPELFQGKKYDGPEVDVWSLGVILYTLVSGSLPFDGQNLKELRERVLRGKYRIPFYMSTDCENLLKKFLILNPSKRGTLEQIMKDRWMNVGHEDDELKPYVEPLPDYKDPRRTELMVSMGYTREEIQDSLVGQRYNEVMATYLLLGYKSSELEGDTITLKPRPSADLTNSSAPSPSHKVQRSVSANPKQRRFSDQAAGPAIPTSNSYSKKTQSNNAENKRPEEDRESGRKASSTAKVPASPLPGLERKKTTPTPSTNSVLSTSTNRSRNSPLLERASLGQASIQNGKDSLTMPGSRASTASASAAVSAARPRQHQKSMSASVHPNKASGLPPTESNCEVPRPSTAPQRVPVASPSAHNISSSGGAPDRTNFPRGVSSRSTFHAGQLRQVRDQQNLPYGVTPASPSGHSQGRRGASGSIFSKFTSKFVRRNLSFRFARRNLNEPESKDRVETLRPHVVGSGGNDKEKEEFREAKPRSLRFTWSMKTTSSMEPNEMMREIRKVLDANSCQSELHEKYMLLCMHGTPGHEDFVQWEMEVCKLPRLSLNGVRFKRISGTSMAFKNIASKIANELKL

SMILES | Avg POC (MARK2) [POC] | Avg POC (MAPKAP-K5) [POC] | Avg POC (DRAK1) [POC] | Avg POC (MEK1) [POC] | Avg POC (MSK2) [POC] | Avg POC (Fer) [POC] | Avg POC (PAK6) [POC] | Avg POC (TAO2) [POC] | Avg POC (MKK7) [POC] | Avg POC (Fms) [POC] | Avg POC (KIT) [POC] | Avg POC (PhKgamma2) [POC] | Avg POC (HIPK3) [POC] | Avg POC (MELK) [POC] | Avg POC (ERK2) [POC] | Avg POC (CK2alpha2) [POC] | Avg POC (p38alpha) [POC] | Avg POC (EphA4) [POC] | Avg POC (mTOR) [POC] | Avg POC (SGK3) [POC] | also measured
COCCN1C[C@@H](NC(=O)Nc2c(C)c(-c3ccnc(C)c3)nn2-c2ccccc2)[C@H](c2ccc(F)c(F)c2)C1 [Example 2, 1-((3S,4R)-4-(3,4-difluorophenyl)-1-(2-methoxyethyl)pyrrolidin-3-yl)-3-(4-methyl-3-(2-methylpyridin-4-yl)-1-phenyl-1H-pyrazol-5-yl)urea] | 90 | 100 | 86.5 | 100.5 | 120 | 105 | 106 | 97 | 97.5 | 101.5 | 101.5 | 90 | 99.5 | 110 | 106.5 | 119.5 | 112 | 108.5 | 108.5 | 106 | Avg POC (DDR2): 100.5 POC; Avg POC (p70S6K): 105.5 POC; Avg POC (DCAMKL2): 105 POC; Avg POC (MAP3K5): 97.5 POC; Avg POC (CDK2/cyclinE): 103 POC; Avg POC (CHK1): 114.5 POC; Avg POC (MKK6): 106.5 POC; Avg POC (TrkB): 1.5 POC; Avg POC (WNK2): 98 POC; Avg POC (MSSK1): 118 POC; Avg POC (EphA8): 104.5 POC; Avg POC (KDR): 116.5 POC; Avg POC (LOK): 109 POC; Avg POC (PKCdelta): 102.5 POC; Avg POC (GSK3beta): 108 POC; Avg POC (Pim-2): 86.5 POC; Avg POC (WNK3): 99 POC; Avg POC (CAMK2b): 90.5 POC; Avg POC (IRAK4): 132 POC; Avg POC (IKKalpha): 121 POC
COCCN1C[C@@H](NC(=O)Nc2c(C)c(-c3cnc(C)nc3)nn2-c2ccccc2)[C@H](c2cc(F)cc(F)c2)C1 [Example 14, 1-((3S,4R)-4-(3,5-difluorophenyl)-1-(2-methoxyethyl)pyrrolidin-3-yl)-3-(4-methyl-3-(2-methylpyrimidin-5-yl)-1-phenyl-1H-pyrazol-5-yl)urea] | 99.5 | 123.5 | 101.5 | 91 | 116 | 100.5 | 102 | 102.5 | 111 | 76 | 101.5 | 88 | 89 | 111.5 | 92.5 | 120 | 101 | 103.5 | 102.5 | 107 | Avg POC (DDR2): 96 POC; Avg POC (p70S6K): 98 POC; Avg POC (DCAMKL2): 114.5 POC; Avg POC (MAP3K5): 104 POC; Avg POC (CDK2/cyclinE): 98.5 POC; Avg POC (CHK1): 104.5 POC; Avg POC (MKK6): 99.5 POC; Avg POC (TrkB): 4.5 POC; Avg POC (WNK2): 99.5 POC; Avg POC (MSSK1): 109 POC; Avg POC (EphA8): 104.5 POC; Avg POC (KDR): 99 POC; Avg POC (LOK): 105 POC; Avg POC (PKCdelta): 99.5 POC; Avg POC (GSK3beta): 114.5 POC; Avg POC (Pim-2): 103.5 POC; Avg POC (WNK3): 96 POC; Avg POC (CAMK2b): 93 POC; Avg POC (IRAK4): 110.5 POC; Avg POC (IKKalpha): 118.5 POC
